From patent US9439854B2, “Liquid pharmaceutical formulations of palonosetron” (Helsinn Healthcare SA, priority 2003, dated 2016)

Experiments:
[1] = target: T1, 5-HT3 receptor (Homo sapiens, UniProt P46098); details: clinical investigations; cited from earlier work
T1 sequence (P46098 24-478): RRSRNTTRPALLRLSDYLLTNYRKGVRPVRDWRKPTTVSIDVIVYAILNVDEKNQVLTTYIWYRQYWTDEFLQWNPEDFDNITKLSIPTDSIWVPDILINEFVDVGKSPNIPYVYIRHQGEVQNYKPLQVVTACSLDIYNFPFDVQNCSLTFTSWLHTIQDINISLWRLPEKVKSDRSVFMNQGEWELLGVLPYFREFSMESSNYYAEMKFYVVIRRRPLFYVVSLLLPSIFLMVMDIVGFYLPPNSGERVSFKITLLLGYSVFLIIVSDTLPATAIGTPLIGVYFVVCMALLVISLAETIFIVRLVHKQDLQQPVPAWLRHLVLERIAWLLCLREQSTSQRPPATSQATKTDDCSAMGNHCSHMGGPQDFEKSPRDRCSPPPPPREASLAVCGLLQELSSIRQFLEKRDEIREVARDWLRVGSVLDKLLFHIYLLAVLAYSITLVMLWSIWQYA

[2] = clinical investigations; cited from earlier work
[3] = effect of pH on stability of formulations containing palonosetron hydrochloride at 80° C.; assay type: physicochemical; details: pH 2.0, 5.0, 7.4 and 10.0 tested
Experimental: A study was conducted to determine the effect of pH on formulations containing palonosetron hydrochloride, measuring the stability at 80° C. at pH 2.0, 5.0, 7.4, and 10.0.

[4] = formulation optimization study (concentration ranges, 24 lots); assay type: physicochemical; details: 0.05 mg/mL to 5.0 mg/mL; citrate buffer 0 to 80 mM; EDTA 0 to 0.10%
Experimental: A formulation optimization study was performed using an experimental design software. Twenty-four lots of drug product were analyzed to investigate the appropriate concentration ranges for palonosetron hydrochloride (0.05 mg/mL to 5.0 mg/mL), citrate buffer (0 to 80 mM) and EDTA (0 to 0.10%).

[5] = physical and chemical stability of palonosetron HCl in infusion solutions (without dexamethasone); assay type: physicochemical; details: 5 and 30 μg/mL in 4 infusion solutions, PVC bags; 14 days at 4° C. in the dark, 48 hours at 23° C. under fluorescent light
Experimental: The physical and chemical stability of palonosetron HCl was studies in concentrations of 5 μg/mL and 30 μg/mL in 5% dextrose injection, 0.9% sodium chloride injection, 5% dextrose in 0.45% sodium chloride injection, and dextrose 5% in lactated Ringer's injection. The admixtures were evaluated over 14 days at 4° C. in the dark and for 48 hours at 23° C. under fluorescent light. Test samples of palonosetron HCl were prepared in polyvinyl chloride (PVC) bags of the infusion solutions at concentrations of 5 and 30 μg/mL. Evaluations for physical and chemical stability were performed on samples taken initially and after 1, 3, 5, 7, and 14 days of storage at 4° C. and after 1, 4, 24, and 48 hours at 23° C. Physical stability was assessed using visual observation in normal room light and using a high-intensity monodirectional light beam. In addition, turbidity and particle content were measured electronically. Chemical stability of the drug was evaluated by using a stability-indicating high performance liquid chromatographic (HPLC) analytical technique.

[6] = physical and chemical stability of palonosetron HCl admixed with dexamethasone; assay type: physicochemical; details: palonosetron HCl 5 or 25 μg/mL with dexamethasone 0.2, 0.4 or 0.33 mg/mL in 5% dextrose or 0.9% sodium chloride; 14 days at 4° C., 48 hours at 23° C.
Experimental: The physical and chemical stability of palonosetron HCl 0.25 mg admixed with dexamethasone (as sodium phosphate) 10 mg or 20 mg in 5% dextrose injection or 0.9% sodium chloride injection in polyvinyl chloride (PVC) minibags, and also admixed with dexamethasone (as sodium phosphate) 3.3 mg in 5% dextrose injection or 0.9% sodium chloride injection in polypropylene syringes at 4° C. in the dark for 14 days and at 23° C. exposed to normal laboratory fluorescent light over 48 hours, was studied. Test samples of palonosetron HCl 5 μg/mL with dexamethasone (as sodium phosphate) 0.2 mg/mL and also 0.4 mg/mL were prepared in polyvinyl chloride (PVC) minibags of each infusion solution. Additionally, palonosetron HCl 25 μg/mL with dexamethasone (as sodium phosphate) 0.33 mg/mL in each infusion solution were prepared as 10 mL of test solution in 20-mL polypropylene syringes. […] Physical stability was assessed using visual observation in normal room light and using a high-intensity monodirectional light beam. In addition, turbidity and particle content were measured electronically. Chemical stability of the drug was evaluated by using a stability-indicating high performance liquid chromatographic (HPLC) analytical technique.

O=C1c2cccc3c2[C@H](CCC3)CN1[C@@H]1CN2CCC1CC2 [palonosetron, (3aS)-2,3,3a,4,5,6-Hexahydro-2-[(S)-1-Azabicyclo[2.2.2]oct-3-yl]2,3,3a,4,5,6-hexahydro-1-oxo-1Hbenz[de]isoquinoline]
potency relative to most existing 5-HT3 receptor antagonists [1]: an order of magnitude more potent than most existing 5-HT3 receptor antagonists
reduction of delayed-onset nausea induced by chemotherapeutic agents [1]: effective to reduce delayed-onset nausea
half-life [2]: about 40 hours

Cl.O=C1c2cccc3c2[C@H](CCC3)CN1[C@@H]1CN2CCC1CC2 [palonosetron hydrochloride]
pH of greatest stability [3]: most stable at pH 5.0
chemical stability as a function of palonosetron concentration [4]: greatest stability seen at the lowest palonosetron concentrations
chemical stability (loss of drug, HPLC) [5]: little or no loss
physical stability (visual, turbidity, particle content) [5]: physically stable throughout the study
physical compatibility (visual, turbidity, particle content) [6]: physically compatible throughout the study

C[C@@H]1C[C@H]2[C@@H]3CCC4=CC(=O)C=C[C@]4(C)[C@@]3(F)[C@@H](O)C[C@]2(C)[C@@]1(O)C(=O)CO [dexamethasone]
chemical stability (loss of drug, HPLC) [6]: little or no loss
